Target: T1, human wildtype CFTR (Homo sapiens, UniProt P13569)
T1 construct: expressed in transfected cells; host or cells: Fischer rat thyroid (FRT) cells
Assay: Fluorescence platereader assay of CFTR-mediated iodide influx (YFP quenching) in FRT cells
Assay type: cell-based
Details: FRT, Table 2, screening; for inhibition at 5 µM: read-out: % Inhibition at 5 μM; for inhibition at 25 µM: read-out: % Inhibition at 25 μM
Procedure: A. Cell lines and compounds—Fischer rat thyroid (FRT) cells co-expressing human wildtype CFTR and the halide indicator YFP-H148Q/1152L were generated as described (see, e.g., Ma et al., J. Clin. Invest. 110:1651-1658 (2002)). Cells were plated in 96-well black-walled microplates (Corning Costar) at a density of 20,000 cells per well in Coon's modified F12 medium supplemented with 5% fetal calf serum, 2 mM L-glutamine, 100 U/mL penicillin, and 100 μg/ml streptomycin. Assays were performed at 48 h after plating the cells when the cells were just confluent. For some experiments, measurements were made using T84 human intestinal epithelial cells and for other experiments, measurements were obtained using primary cultures of human bronchial epithelial cells, which were obtained and grown essentially as previously described (see, e.g., 3 and 27).
B. Compound Screening—Assays were performed using an automated screening platform (Beckman) equipped with FLUOStar fluorescence platereaders (BMG Lab Technologies, Offenburg, Germany) as described (see Ma et al., supra). Each well of a 96-well plate containing FRT cells was washed 3 times in PBS (300 μL/wash), leaving 50 μL PBS. […] After 15 min, 96-well plates were transferred to a plate reader for fluorescence assay. Each well was assayed individually for CFTR-mediated iodide influx by recording fluorescence continuously (200 ms per point) for 2 s (baseline) and then for 10 s after rapid addition of 160 μL of isosmolar PBS in which 137 mM chloride was replaced by iodide. The initial rate of iodide influx was computed from fluorescence data by non-linear regression.
Collections of synthetic and natural compounds were screened according to the screening procedures described in Example 2. A cell-based fluorescence assay was used in which CFTR inhibitors were identified by reduced iodide influx in FRT cells co-expressing human CFTR and a YFP halide sensor. CFTR was maximally activated by a mixture of agonists having different activating mechanisms. Inhibition of iodide influx was observed as reduced YFP fluorescence quenching in response to rapid iodide addition to each well of 96-well plates. […]

T1 sequence (P13569 whole entry): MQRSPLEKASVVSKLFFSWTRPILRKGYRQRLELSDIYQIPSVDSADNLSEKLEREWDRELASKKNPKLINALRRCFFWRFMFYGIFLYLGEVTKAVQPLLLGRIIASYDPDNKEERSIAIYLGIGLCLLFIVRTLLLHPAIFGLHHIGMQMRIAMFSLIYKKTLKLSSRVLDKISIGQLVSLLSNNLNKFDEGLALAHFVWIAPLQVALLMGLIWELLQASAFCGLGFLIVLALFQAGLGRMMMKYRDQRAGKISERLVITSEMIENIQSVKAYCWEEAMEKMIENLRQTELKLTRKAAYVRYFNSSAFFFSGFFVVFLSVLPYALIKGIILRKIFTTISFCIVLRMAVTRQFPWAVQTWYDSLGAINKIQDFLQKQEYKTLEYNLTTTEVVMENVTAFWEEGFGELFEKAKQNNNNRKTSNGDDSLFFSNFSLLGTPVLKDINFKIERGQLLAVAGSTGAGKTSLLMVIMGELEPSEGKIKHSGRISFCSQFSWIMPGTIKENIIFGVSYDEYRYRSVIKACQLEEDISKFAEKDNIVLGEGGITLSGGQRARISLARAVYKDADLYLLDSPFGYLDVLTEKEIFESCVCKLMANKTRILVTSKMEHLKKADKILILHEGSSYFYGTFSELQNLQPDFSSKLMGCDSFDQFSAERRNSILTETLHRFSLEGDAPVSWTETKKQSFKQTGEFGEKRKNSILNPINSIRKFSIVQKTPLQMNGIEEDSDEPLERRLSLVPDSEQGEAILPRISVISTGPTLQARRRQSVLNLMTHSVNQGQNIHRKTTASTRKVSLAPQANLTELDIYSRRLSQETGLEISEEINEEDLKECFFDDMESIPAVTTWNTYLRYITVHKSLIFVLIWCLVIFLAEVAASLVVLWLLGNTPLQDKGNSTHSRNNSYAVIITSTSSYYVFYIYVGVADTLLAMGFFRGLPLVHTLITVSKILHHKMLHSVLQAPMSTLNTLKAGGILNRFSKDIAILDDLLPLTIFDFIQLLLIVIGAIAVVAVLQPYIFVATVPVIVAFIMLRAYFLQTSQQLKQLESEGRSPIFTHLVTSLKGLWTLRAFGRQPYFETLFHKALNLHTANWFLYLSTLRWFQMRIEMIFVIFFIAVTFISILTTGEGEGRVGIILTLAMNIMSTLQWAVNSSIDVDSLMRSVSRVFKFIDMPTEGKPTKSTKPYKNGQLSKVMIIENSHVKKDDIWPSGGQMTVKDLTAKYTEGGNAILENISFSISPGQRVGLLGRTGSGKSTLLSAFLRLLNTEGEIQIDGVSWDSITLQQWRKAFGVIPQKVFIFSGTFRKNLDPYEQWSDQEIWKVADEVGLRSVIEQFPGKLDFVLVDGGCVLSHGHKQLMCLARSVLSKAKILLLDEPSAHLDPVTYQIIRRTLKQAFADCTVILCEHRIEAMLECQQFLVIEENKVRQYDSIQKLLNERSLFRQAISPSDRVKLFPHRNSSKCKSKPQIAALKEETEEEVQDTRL

| Structure (SMILES) | inhibition at 5 µM [%] | inhibition at 25 µM [%] |
| --- | --- | --- |
| COc1ccccc1C1Nc2cc(C)c(C)cc2-n2c(-c3ccccc3)c3c(=O)n(C)c(=O)n(C)c3c21 (stereo not shown) | < 10 | 47 |
| COc1ccc(-c2c3c(=O)n(C)c(=O)n(C)c3c3n2-c2ccccc2NC3c2cccc(OC)c2)cc1 (stereo not shown) | 13 | 47 |
| CCOc1cc(C2Nc3ccccc3-n3c(-c4ccccc4)c4c(=O)n(C)c(=O)n(C)c4c32)ccc1O (stereo not shown) | < 10 | 47 |
| COc1ccc(-c2c3c(=O)n(C)c(=O)n(C)c3c3n2-c2ccccc2NC3c2ccccc2Cl)cc1 (stereo not shown) | < 10 | 47 |
| Cc1ccccc1-c1c2c(=O)n(C)c(=O)n(C)c2c2n1-c1ccccc1NC2c1ccc(C#N)cc1 (stereo not shown) | < 10 | 45 |
| Cn1c(=O)c2c(-c3ccccc3F)n3c(c2n(C)c1=O)C(c1ccc(Cl)cc1)Nc1ccccc1-3 (stereo not shown) | < 10 | 44 |
| Cc1cc2c(cc1C)-n1c(-c3ccccc3F)c3c(=O)n(C)c(=O)n(C)c3c1C(c1ccco1)N2 (stereo not shown) | 41 | 44 |
| Cc1ccccc1C1Nc2ccccc2-n2c(-c3ccccc3)c3c(=O)n(C)c(=O)n(C)c3c21 (stereo not shown) | 13 | 41 |
| Cc1cc2c(cc1C)-n1c(-c3ccccc3F)c3c(=O)n(C)c(=O)n(C)c3c1C(c1ccccc1F)N2 (stereo not shown) | 23 | 35 |
| Cc1ccc(C2Nc3ccccc3-n3c(-c4ccccc4C)c4c(=O)n(C)c(=O)n(C)c4c32)cc1 (stereo not shown) | 13 | 38 |
| Cn1c(=O)c2c(-c3ccc(Cl)cc3)n3c(c2n(C)c1=O)C(c1ccccc1)Nc1ccccc1-3 (stereo not shown) | < 10 | 34 |
| COc1ccc(C2Nc3ccccc3-n3c(-c4ccccc4F)c4c(=O)n(C)c(=O)n(C)c4c32)cc1 (stereo not shown) | < 10 | 33 |
| COc1ccc(-c2c3c(=O)n(C)c(=O)n(C)c3c3n2-c2ccccc2NC3c2cccc(O)c2)cc1 (stereo not shown) | < 10 | 33 |
| C=CCc1cccc(C2Nc3ccccc3-n3c(-c4ccccc4)c4c(=O)n(C)c(=O)n(C)c4c32)c1O (stereo not shown) | < 10 | 31 |
| Cc1ccc(-c2c3c(=O)n(C)c(=O)n(C)c3c3n2-c2ccccc2NC3c2cccc(F)c2F)cc1 (stereo not shown) | 27 | 31 |
| COc1ccc(O)c(C2Nc3ccccc3-n3c(-c4ccccc4)c4c(=O)n(C)c(=O)n(C)c4c32)c1 (stereo not shown) | < 10 | 33 |
| CCOc1ccc(C2Nc3ccccc3-n3c(-c4ccccc4C)c4c(=O)n(C)c(=O)n(C)c4c32)cc1 (stereo not shown) | < 10 | 32 |
| COc1cccc(C2Nc3ccccc3-n3c(-c4ccc(Cl)cc4)c4c(=O)n(C)c(=O)n(C)c4c32)c1 (stereo not shown) | < 10 | 41 |
| Cc1ccc(-c2c3c(=O)n(C)c(=O)n(C)c3c3n2-c2ccccc2NC3c2cccs2)cc1 (stereo not shown) | < 10 | 35 |
| Cn1c(=O)c2c(-c3ccccc3)n3c(c2n(C)c1=O)C(c1cc([N+](=O)[O-])ccc1O)Nc1ccccc1-3 (stereo not shown) | 12 | 40 |
| COc1ccc(-c2c3c(=O)n(C)c(=O)n(C)c3c3n2-c2ccccc2NC3c2ccccc2F)cc1 (stereo not shown) | < 10 | 39 |
| COc1ccc(-c2c3c(=O)n(C)c(=O)n(C)c3c3n2-c2ccccc2NC3c2ccccc2)cc1 (stereo not shown) | < 10 | 39 |
| COc1ccc(O)c(C2Nc3ccccc3-n3c(-c4ccccc4C)c4c(=O)n(C)c(=O)n(C)c4c32)c1 (stereo not shown) | < 10 | 38 |
| Cc1ccc(C2Nc3ccccc3-n3c(-c4ccccc4)c4c(=O)n(C)c(=O)n(C)c4c32)cc1 (stereo not shown) | < 10 | 38 |
| Cn1c(=O)c2c(-c3ccccc3)n3c(c2n(C)c1=O)C(c1ccc(O)cc1O)Nc1ccccc1-3 (stereo not shown) | < 10 | 35 |
| COc1ccc(-c2c3c(=O)n(C)c(=O)n(C)c3c3n2-c2ccccc2NC3c2cccs2)cc1 (stereo not shown) | < 10 | 34 |

Source: patent US8609661B2, “Pyrimido-pyrrolo-quinoxalinedione inhibitors of cystic fibrosis transmembrane conductance regulator protein and uses therefor” (The Regents of the University of California, priority 2009, dated 2013)
